# ChEMBL document CHEMBL4610038, “The synthesis of trifluoromethylated N-nitroaryl-2-amino-1,3-dichloropropane derivatives and their evaluation as potential anti-cancer agents” (Bioorg Med Chem Lett, 2020)
# Experiments:
# HCT-116 [1] = assay: Cytotoxicity against human HCT116 cells assessed as cell viability at 100 uM relative to control; type: functional; conditions: read-out: Activity
# A549 [2] = assay: Cytotoxicity against human A549 cells assessed as reduction in cell viability; type: functional, cell-based
# [3] = Cytotoxicity against human MCF10A cells assessed as cell viability at 100 uM relative to control; type: cell-based, MCF-10A; conditions: read-out: Activity
# SW1990 [4] = assay: Cytotoxicity against human SW1990 cells assessed as reduction in cell viability; type: functional, cell-based
# NCI-H1299 [5] = assay: Cytotoxicity against human H1299 cells assessed as cell viability at 100 uM relative to control; type: functional; conditions: read-out: Activity
# SK-BR-3 [6] = assay: Cytotoxicity against human SKBR3 cells assessed as reduction in cell viability; type: functional, cell-based
# [7] = Cytotoxicity against human HK1 cells assessed as cell viability at 100 uM relative to control; type: functional; conditions: HK-1, read-out: Activity
# [8] = Cytotoxicity against human HK1 cells assessed as reduction in cell viability; type: functional, cell-based; conditions: HK-1
# HT-29 [9] = assay: Cytotoxicity against human HT-29 cells assessed as cell viability at 100 uM relative to control; type: functional; conditions: read-out: Activity
# SUNE1 [10] = assay: Cytotoxicity against human SUNE1 cells assessed as reduction in cell viability; type: functional, cell-based
# SK-BR-3 [11] = assay: Cytotoxicity against human SKBR3 cells assessed as cell viability at 100 uM relative to control; type: functional; conditions: read-out: Activity
# MDA-MB-468 [12] = assay: Cytotoxicity against human MDA-MB-468 cells assessed as reduction in cell viability; type: functional, cell-based
# SH-SY5Y [13] = assay: Cytotoxicity against human SH-SY5Y cells assessed as reduction in cell viability; type: functional, cell-based
# BXPC-3 [14] = assay: Cytotoxicity against human BxPC3 cells assessed as reduction in cell viability; type: functional, cell-based
# HT-29 [15] = assay: Cytotoxicity against human HT-29 cells assessed as reduction in cell viability; type: functional, cell-based
# MCF-10A = assay: Cytotoxicity against human MCF10A cells assessed as reduction in cell viability; type: cell-based
# MDA-MB-231 [16] = assay: Cytotoxicity against human MDA-MB-231 cells assessed as cell viability at 100 uM relative to control; type: functional; conditions: read-out: Activity
# SH-SY5Y [17] = assay: Cytotoxicity against human SH-SY5Y cells assessed as cell viability at 100 uM relative to control; type: functional; conditions: read-out: Activity
# SUNE1 [18] = assay: Cytotoxicity against human SUNE1 cells assessed as cell viability at 100 uM relative to control; type: functional; conditions: read-out: Activity
# [19] = Cytotoxicity against human MRC5 cells assessed as cell viability at 100 uM relative to control; type: cell-based; conditions: read-out: Activity
# SW1990 [20] = assay: Cytotoxicity against human SW1990 cells assessed as cell viability at 100 uM relative to control; type: functional; conditions: read-out: Activity
# CNE [21] = assay: Cytotoxicity against human CNE1 cells assessed as cell viability at 100 uM relative to control; type: functional; conditions: read-out: Activity
# MRC5 = assay: Cytotoxicity against human MRC5 cells assessed as reduction in cell viability; type: cell-based
# BXPC-3 [22] = assay: Cytotoxicity against human BxPC3 cells assessed as cell viability at 100 uM relative to control; type: functional; conditions: read-out: Activity
# HCT-116 [23] = assay: Cytotoxicity against human HCT116 cells assessed as reduction in cell viability; type: functional, cell-based
# T47D [24] = assay: Cytotoxicity against human T47D cells assessed as cell viability at 100 uM relative to control; type: functional; conditions: read-out: Activity
# Caco-2 [25] = assay: Cytotoxicity against human Caco2 cells assessed as reduction in cell viability; type: functional, cell-based
# ASPC1 [26] = assay: Cytotoxicity against human AsPC1 cells assessed as cell viability at 100 uM relative to control; type: functional; conditions: read-out: Activity
# SW48 [27] = assay: Cytotoxicity against human SW48 cells assessed as reduction in cell viability; type: functional, cell-based
# MCF7 [28] = assay: Cytotoxicity against human MCF7 cells assessed as cell viability at 100 uM relative to control; type: functional; conditions: read-out: Activity
# MCF7 [29] = assay: Cytotoxicity against human MCF7 cells assessed as reduction in cell viability; type: functional, cell-based
# A549 [30] = assay: Cytotoxicity against human A549 cells assessed as cell viability at 100 uM relative to control; type: functional; conditions: read-out: Activity
# Caco-2 [31] = assay: Cytotoxicity against human Caco2 cells assessed as cell viability at 100 uM relative to control; type: functional; conditions: read-out: Activity
# T47D [32] = assay: Cytotoxicity against human T47D cells assessed as reduction in cell viability; type: functional, cell-based
# MDA-MB-468 [33] = assay: Cytotoxicity against human MDA-MB-468 cells assessed as cell viability at 100 uM relative to control; type: functional; conditions: read-out: Activity
# CNE [34] = assay: Cytotoxicity against human CNE1 cells assessed as reduction in cell viability; type: functional, cell-based
# ASPC1 [35] = assay: Cytotoxicity against human AsPC1 cells assessed as reduction in cell viability; type: functional, cell-based
# SW48 [36] = assay: Cytotoxicity against human SW48 cells assessed as cell viability at 100 uM relative to control; type: functional; conditions: read-out: Activity
# MDA-MB-231 [37] = assay: Cytotoxicity against human MDA-MB-231 cells assessed as reduction in cell viability; type: functional, cell-based
# NCI-H1299 [38] = assay: Cytotoxicity against human H1299 cells assessed as reduction in cell viability; type: functional, cell-based
compound,measurement,setting,value
O=[N+]([O-])c1cc(C(F)(F)F)ccc1NC(CO)CO,viability at 100 µM,HCT-116 [1],83.9%
same,IC50,A549 [2],> 100 µM
same,viability at 100 µM,[3],102%
same,IC50,SW1990 [4],> 100 µM
same,viability at 100 µM,NCI-H1299 [5],91.3%
same,IC50,SK-BR-3 [6],> 100 µM
same,viability at 100 µM,[7],92.9%
same,IC50,[8],> 100 µM
same,viability at 100 µM,HT-29 [9],95.2%
same,IC50,SUNE1 [10],> 100 µM
same,viability at 100 µM,SK-BR-3 [11],66.4%
same,IC50,MDA-MB-468 [12],> 100 µM
same,IC50,SH-SY5Y [13],> 100 µM
same,IC50,BXPC-3 [14],> 100 µM
same,IC50,HT-29 [15],> 100 µM
same,IC50,MCF-10A,> 100 µM
same,viability at 100 µM,MDA-MB-231 [16],67.3%
same,viability at 100 µM,SH-SY5Y [17],84.9%
same,viability at 100 µM,SUNE1 [18],83.4%
same,viability at 100 µM,[19],64.9%
same,viability at 100 µM,SW1990 [20],68.5%
same,viability at 100 µM,CNE [21],106%
same,IC50,MRC5,> 100 µM
same,viability at 100 µM,BXPC-3 [22],108%
same,IC50,HCT-116 [23],> 100 µM
same,viability at 100 µM,T47D [24],68.6%
same,IC50,Caco-2 [25],> 100 µM
same,viability at 100 µM,ASPC1 [26],81.8%
same,IC50,SW48 [27],> 100 µM
same,viability at 100 µM,MCF7 [28],57.4%
same,IC50,MCF7 [29],> 100 µM
same,viability at 100 µM,A549 [30],57.9%
same,viability at 100 µM,Caco-2 [31],89.5%
same,IC50,T47D [32],> 100 µM
same,viability at 100 µM,MDA-MB-468 [33],100%
same,IC50,CNE [34],> 100 µM
same,IC50,ASPC1 [35],> 100 µM
same,viability at 100 µM,SW48 [36],98.8%
same,IC50,MDA-MB-231 [37],> 100 µM
same,IC50,NCI-H1299 [38],> 100 µM
O=[N+]([O-])c1ccc(NC(CO)CO)cc1C(F)(F)F,viability at 100 µM,HCT-116 [1],86.8%
same,IC50,A549 [2],> 100 µM
same,viability at 100 µM,[3],102%
same,IC50,SW1990 [4],> 100 µM
same,viability at 100 µM,NCI-H1299 [5],72.3%
same,IC50,SK-BR-3 [6],> 100 µM
same,viability at 100 µM,[7],92.8%
same,IC50,[8],> 100 µM
same,viability at 100 µM,HT-29 [9],110%
same,IC50,SUNE1 [10],> 100 µM
same,viability at 100 µM,SK-BR-3 [11],79.4%
same,IC50,MDA-MB-468 [12],> 100 µM
same,IC50,SH-SY5Y [13],> 100 µM
same,IC50,BXPC-3 [14],> 100 µM
same,IC50,HT-29 [15],> 100 µM
same,IC50,MCF-10A,> 100 µM
same,viability at 100 µM,MDA-MB-231 [16],65.7%
same,viability at 100 µM,SH-SY5Y [17],70.8%
same,viability at 100 µM,SUNE1 [18],104%
same,viability at 100 µM,[19],32.8%
same,viability at 100 µM,SW1990 [20],71.5%
same,viability at 100 µM,CNE [21],100%
same,IC50,MRC5,41 µM
same,viability at 100 µM,BXPC-3 [22],108%
same,IC50,HCT-116 [23],> 100 µM
same,viability at 100 µM,T47D [24],71.2%
same,IC50,Caco-2 [25],> 100 µM
same,viability at 100 µM,ASPC1 [26],87.3%
same,IC50,SW48 [27],> 100 µM
same,viability at 100 µM,MCF7 [28],49.7%
same,IC50,MCF7 [29],88.1 µM
same,viability at 100 µM,A549 [30],61.9%
same,viability at 100 µM,Caco-2 [31],96.1%
same,IC50,T47D [32],> 100 µM
same,viability at 100 µM,MDA-MB-468 [33],98.7%
same,IC50,CNE [34],> 100 µM
same,IC50,ASPC1 [35],> 100 µM
same,viability at 100 µM,SW48 [36],78.9%
same,IC50,MDA-MB-231 [37],> 100 µM
same,IC50,NCI-H1299 [38],> 100 µM
O=[N+]([O-])c1cc(C(F)(F)F)ccc1NC(CCl)CCl,viability at 100 µM,HCT-116 [1],45.1%
same,IC50,A549 [2],33.3 µM
same,viability at 100 µM,[3],77.1%
same,IC50,SW1990 [4],92.1 µM
same,viability at 100 µM,NCI-H1299 [5],52.4%
same,IC50,SK-BR-3 [6],67.8 µM
same,viability at 100 µM,[7],59.7%
same,IC50,[8],> 100 µM
same,viability at 100 µM,HT-29 [9],47.1%
same,IC50,SUNE1 [10],92.9 µM
same,viability at 100 µM,SK-BR-3 [11],38.5%
same,IC50,MDA-MB-468 [12],> 100 µM
same,IC50,SH-SY5Y [13],62.5 µM
same,IC50,BXPC-3 [14],> 100 µM
same,IC50,HT-29 [15],87.8 µM
same,IC50,MCF-10A,> 100 µM
same,viability at 100 µM,MDA-MB-231 [16],32.1%
same,viability at 100 µM,SH-SY5Y [17],33.7%
same,viability at 100 µM,SUNE1 [18],42.3%
same,viability at 100 µM,[19],29.9%
same,viability at 100 µM,SW1990 [20],42.1%
same,viability at 100 µM,CNE [21],27.1%
same,IC50,MRC5,62.1 µM
same,viability at 100 µM,BXPC-3 [22],62.9%
same,IC50,HCT-116 [23],82.1 µM
same,viability at 100 µM,T47D [24],25.6%
same,IC50,Caco-2 [25],39.9 µM
same,viability at 100 µM,ASPC1 [26],51.1%
same,IC50,SW48 [27],62.3 µM
same,viability at 100 µM,MCF7 [28],21.4%
same,IC50,MCF7 [29],34.3 µM
same,viability at 100 µM,A549 [30],24.6%
same,viability at 100 µM,Caco-2 [31],21.9%
same,IC50,T47D [32],35.1 µM
same,viability at 100 µM,MDA-MB-468 [33],65.1%
same,IC50,CNE [34],32.1 µM
same,IC50,ASPC1 [35],> 100 µM
same,viability at 100 µM,SW48 [36],32.8%
same,IC50,MDA-MB-231 [37],54.5 µM
same,IC50,NCI-H1299 [38],> 100 µM
